Test: molar heat capacity at constant volume
Details: Fluid (supercritical or subcritical phases), Vacuum adiabatic calorimetry

CCC(C)O (stereo not given) [butan-2-ol]
Details	molar heat capacity at constant volume [J/K/mol]
307.37 K, Mass density=794.06 kg/m3	167.81
307.62 K, Mass density=794.06 kg/m3	154.62
307.87 K, Mass density=794.06 kg/m3	157.58
308.12 K, Mass density=794.06 kg/m3	160.7
308.37 K, Mass density=794.06 kg/m3	163.88
308.62 K, Mass density=794.06 kg/m3	165.44
308.87 K, Mass density=794.06 kg/m3	167.74
309.12 K, Mass density=794.06 kg/m3	167.81
309.37 K, Mass density=794.06 kg/m3	168.4
309.62 K, Mass density=794.06 kg/m3	167.22
311.11 K, Mass density=794.06 kg/m3	182.78
321.67 K, Mass density=794.06 kg/m3	204.87
323.61 K, Mass density=794.06 kg/m3	208.36
323.85 K, Mass density=794.06 kg/m3	208.87
324.09 K, Mass density=794.06 kg/m3	208.06
324.33 K, Mass density=794.06 kg/m3	208.8
324.57 K, Mass density=794.06 kg/m3	208.8
324.81 K, Mass density=794.06 kg/m3	207.99
325.06 K, Mass density=794.06 kg/m3	209.76
325.3 K, Mass density=794.06 kg/m3	210.43
325.54 K, Mass density=794.06 kg/m3	211.25
325.78 K, Mass density=769.05 kg/m3	223.77
325.78 K, Mass density=794.06 kg/m3	210.73
326.02 K, Mass density=769.05 kg/m3	224.88
326.02 K, Mass density=794.06 kg/m3	211.32
326.26 K, Mass density=769.05 kg/m3	226.22
326.26 K, Mass density=794.06 kg/m3	213.03
326.5 K, Mass density=769.05 kg/m3	226.29
326.74 K, Mass density=769.05 kg/m3	227.11
326.98 K, Mass density=769.05 kg/m3	226.59
327.22 K, Mass density=769.05 kg/m3	226.59
327.22 K, Mass density=794.06 kg/m3	213.54
327.46 K, Mass density=794.06 kg/m3	212.51
327.7 K, Mass density=794.06 kg/m3	212.8
327.94 K, Mass density=794.06 kg/m3	212.73
328.18 K, Mass density=794.06 kg/m3	212.43
333.2 K, Mass density=769.05 kg/m3	231.33
333.44 K, Mass density=769.05 kg/m3	232.45
333.67 K, Mass density=769.05 kg/m3	231.78
333.91 K, Mass density=769.05 kg/m3	232.59
334.15 K, Mass density=769.05 kg/m3	232.82
334.39 K, Mass density=769.05 kg/m3	233.04
334.62 K, Mass density=769.05 kg/m3	232.82
334.86 K, Mass density=769.05 kg/m3	233.63
335.1 K, Mass density=769.05 kg/m3	234.15
335.33 K, Mass density=769.05 kg/m3	233.41
335.57 K, Mass density=769.05 kg/m3	225.63
335.81 K, Mass density=769.05 kg/m3	219.55
336.04 K, Mass density=769.05 kg/m3	213.77
336.28 K, Mass density=769.05 kg/m3	209.39
336.52 K, Mass density=769.05 kg/m3	207.32
336.75 K, Mass density=769.05 kg/m3	207.02
337.46 K, Mass density=769.05 kg/m3	204.72
337.93 K, Mass density=769.05 kg/m3	204.8
338.64 K, Mass density=769.05 kg/m3	204.35
339.34 K, Mass density=769.05 kg/m3	203.76
349.82 K, Mass density=735.98 kg/m3	241.34
350.05 K, Mass density=735.98 kg/m3	242.01
350.28 K, Mass density=735.98 kg/m3	243.56
350.51 K, Mass density=735.98 kg/m3	243.19
350.74 K, Mass density=735.98 kg/m3	243.49
352.35 K, Mass density=769.05 kg/m3	218.36
352.58 K, Mass density=769.05 kg/m3	219.99
353.27 K, Mass density=735.98 kg/m3	242.23
353.49 K, Mass density=735.98 kg/m3	245.19
353.72 K, Mass density=735.98 kg/m3	244.68
353.95 K, Mass density=735.98 kg/m3	243.34
354.18 K, Mass density=735.98 kg/m3	245.12
354.41 K, Mass density=735.98 kg/m3	243.86
354.64 K, Mass density=735.98 kg/m3	245.56
364.16 K, Mass density=735.98 kg/m3	251.2
364.39 K, Mass density=735.98 kg/m3	251.35
364.61 K, Mass density=735.98 kg/m3	252.01
364.84 K, Mass density=735.98 kg/m3	252.16
365.06 K, Mass density=735.98 kg/m3	251.79
365.29 K, Mass density=735.98 kg/m3	251.79
365.51 K, Mass density=735.98 kg/m3	252.01
366.41 K, Mass density=735.98 kg/m3	253.2
366.63 K, Mass density=735.98 kg/m3	248.46
366.86 K, Mass density=735.98 kg/m3	245.27
367.08 K, Mass density=735.98 kg/m3	226.44
367.31 K, Mass density=735.98 kg/m3	219.84
367.53 K, Mass density=735.98 kg/m3	215.18
367.75 K, Mass density=735.98 kg/m3	213.69
367.98 K, Mass density=735.98 kg/m3	212.88
368.2 K, Mass density=735.98 kg/m3	213.25
369.54 K, Mass density=735.98 kg/m3	213.69
369.76 K, Mass density=735.98 kg/m3	214.43
369.99 K, Mass density=735.98 kg/m3	214.66
371.32 K, Mass density=683.53 kg/m3	261.13
371.54 K, Mass density=683.53 kg/m3	261.43
371.77 K, Mass density=683.53 kg/m3	261.72
371.99 K, Mass density=683.53 kg/m3	263.06
372.21 K, Mass density=683.53 kg/m3	263.95
372.43 K, Mass density=683.53 kg/m3	260.76
372.65 K, Mass density=683.53 kg/m3	259.87
373.1 K, Mass density=735.98 kg/m3	216.29
373.32 K, Mass density=735.98 kg/m3	217.25
373.54 K, Mass density=735.98 kg/m3	217.99
373.76 K, Mass density=735.98 kg/m3	219.7
373.98 K, Mass density=735.98 kg/m3	219.03
374.21 K, Mass density=735.98 kg/m3	216.66
374.43 K, Mass density=735.98 kg/m3	217.4
374.65 K, Mass density=735.98 kg/m3	217.47
374.87 K, Mass density=735.98 kg/m3	218.51
